Where a name gives a salt, the structure may show the parent alone.
The compounds below were run against AaDOP2 (Aedes aegypti, UniProt H6D5H2) (assay: AaDOP2 antagonist screen of the LOPAC1280 library (HEK-CRELuc-Aadop2 cells, luminescence)). Conditions: not given.
Assay type: cell-based

AaDOP2, sequence (H6D5H2 1-476): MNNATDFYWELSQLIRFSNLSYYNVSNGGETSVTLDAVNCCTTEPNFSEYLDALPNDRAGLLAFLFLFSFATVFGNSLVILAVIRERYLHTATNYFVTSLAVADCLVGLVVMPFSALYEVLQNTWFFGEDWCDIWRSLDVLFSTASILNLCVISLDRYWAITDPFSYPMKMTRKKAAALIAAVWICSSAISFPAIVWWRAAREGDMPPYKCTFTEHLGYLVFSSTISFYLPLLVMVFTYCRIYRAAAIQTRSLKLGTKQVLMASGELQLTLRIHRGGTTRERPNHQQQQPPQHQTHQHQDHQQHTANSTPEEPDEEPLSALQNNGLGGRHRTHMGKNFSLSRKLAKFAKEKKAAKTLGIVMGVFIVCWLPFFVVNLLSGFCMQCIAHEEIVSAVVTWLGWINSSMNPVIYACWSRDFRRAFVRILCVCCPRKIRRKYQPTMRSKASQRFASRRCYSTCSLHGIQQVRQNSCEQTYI

Row | SMILES | Compound effect (percent receptor signaling in presence of test compound, relative lux units relative to the SCH23390 control) | % of the SCH23390 effect (percent inhibition of receptor response relative to the SCH23390 control)
1 | N=C(N)SCCc1cnc[nH]1 [Compound 673, Imetit dihydrobromide] | 91 | 
2 | Oc1cccc2c(O)nccc12 [Compound 674, 1,5-Isoquinolinediol] | 92 | 
3 | CNC(=O)[C@H]1O[C@@H](n2cnc3c(NCc4cccc(I)c4)ncnc32)[C@H](O)[C@@H]1O [Compound 676, IB-MECA] | 105 | 
4 | COc1ccc2c(c1)c(CC(=O)N1CCOCC1)c(C)n2C(=O)c1ccc(Cl)cc1 [Compound 677, Indomethacin morpholinylamide] | 89 | 
5 | Cl.Fc1ccc(C(OCCCc2c[nH]cn2)c2ccc(F)cc2)cc1 [Compound 678, 3-(1H-Imidazol-4-yl)propyl di(p-fluorophenyl)methyl ether hydrochloride] | 52 | 
6 | O=C(O)C1CCNCC1 [Compound 679, Isonipecotic acid] | 94 | 
7 | CCCn1c(C)c(C(=O)c2cccc3ccccc23)c2ccccc21 [Compound 680, JWH-015] | 73 | 
8 | Cc1ccc2c(c1)C(N1CCN(C)CC1)=Nc1cccnc1N2 [Compound 681, JL-18] | 2 | 98%
9 | C=C(C)[C@H]1CN[C@H](C(=O)O)[C@H]1CC(=O)O [Compound 682, Kainic acid] | 98 | 
10 | CC(=O)N1CCN(c2ccc(OCC3COC(Cn4ccnc4)(c4ccc(Cl)cc4Cl)O3)cc2)CC1 (stereo not drawn) [Compound 683, Ketoconazole] | 85 | 
11 | CC(C(=O)O)c1cccc(C(=O)c2ccccc2)c1 (stereo not drawn) [Compound 685, Ketoprofen] | 101 | 
12 | CCCC(=O)NCCc1c2n(c3ccc(OC)cc13)CCCc1ccccc1-2 [Compound 686, K 185] | 80 | 
13 | CN1CCC(=C2c3ccccc3CC(=O)c3sccc32)CC1 [Compound 687, Ketotifen fumarate] | 4 | 
14 | O=C(O)c1cc(=O)c2ccccc2[nH]1 [Compound 688, Kynurenic acid] | 99 | 
15 | O=C1Cc2c([nH]c3ccc(Br)cc23)-c2ccccc2N1 [Compound 689, Kenpaullone] | 17 | 
16 | CCN1C[C@]2(C)CC[C@H](O)[C@]34C1[C@@H](C[C@H]23)[C@@]1(O)C[C@H](OC)[C@H]2C[C@@H]4[C@@H]1[C@H]2O [Compound 690, Karakoline] | 101 | 
17 | O=c1[nH]c2cc(Cl)ccc2c(O)c1-c1cccc(Oc2ccccc2)c1 [Compound 691, L-701,324] | 90 | 
18 | CC(C(=O)O)c1ccc(CC2CCCC2=O)cc1 (stereo not drawn) [Compound 692, loxoprofen] | 92 | 
19 | CC(CCc1ccccc1)NCC(O)c1ccc(O)c(C(N)=O)c1 (stereo not drawn) [Compound 693, Labetalol hydrochloride] | 83 | 
20 | CCCCOC(=O)NS(=O)(=O)c1sc(CC(C)C)cc1-c1ccc(Cn2c(CC)nc3c(C)cc(C)nc32)cc1 [Compound 694, L-162,313] | 99 | 
21 | CC[N+](C)(CC)CC(=O)Nc1c(C)cccc1C.[Cl-] [Compound 695, Lidocaine N-methyl hydrochloride] | 92 | 
22 | CC1(C)CCC2=C(O1)c1ccccc1C(=O)C2=O [Compound 696, beta-Lapachone] | 14 | 

Row | SMILES | Compound effect (percent receptor signaling in presence of test compound, relative lux units relative to the SCH23390 control) | % of the SCH23390 effect (percent inhibition of receptor response relative to the SCH23390 control)
23 | O=S1(=O)N(CCN2CC=C(c3c[nH]c4cc(F)ccc34)CC2)c2cccc3c2N1CCC3 [Compound 697, LY-367,265] | 29 | 
24 | Cc1ccccc1N1CCN(S(=O)(=O)C[C@]23CC[C@H](C[C@@H]2NC(=O)[C@@H](N)CCS(C)(=O)=O)C3(C)C)CC1 [Compound 699, L-368,899] | 94 | 
25 | CCn1cc(C(=O)O)c(=O)c2cc(F)c(N3CCNC(C)C3)c(F)c21 (stereo not drawn) [Compound 700, Lomefloxacin hydrochloride] | 90 | 
26 | Nc1nnc(-c2cccc(Cl)c2Cl)c(N)n1 [Compound 701, Lamotrigine] | 87 | 
27 | CN1[C@@H](CC(=O)c2ccccc2)CCC[C@H]1C[C@H](O)c1ccccc1.Cl [Compound 702, alpha-Lobeline hydrochloride] | 89 | 
28 | CN(C)C(=O)C(CCN1CCC(O)(c2ccc(Cl)cc2)CC1)(c1ccccc1)c1ccccc1 [Compound 703, Loperamide hydrochloride] | 83 | 
29 | O=C(O)c1nn(Cc2ccc(Cl)cc2Cl)c2ccccc12 [Compound 704, Lonidamine] | 90 | 
30 | Cc1oncc1C(=O)Nc1ccc(C(F)(F)F)cc1 [Compound 705, Leflunomide] | 97 | 
31 | CN1CCc2ccccc2Cc2[nH]c3ccccc3c2CC1 [Compound 710, LE 300] | 1 | 99%
32 | Cc1c(OCC(F)(F)F)ccnc1C[S+]([O-])c1nc2ccccc2[nH]1 (stereo not drawn) [Compound 711, Lansoprazole] | 91 | 
33 | Cl.c1ccc(CN2CCC3(CCCc4ccccc43)CC2)cc1 [Compound 712, L-687,384 hydrochloride] | 87 | 
34 | C/C(O)=C(\C#N)C(=O)Nc1cc(Br)ccc1Br [Compound 713, LFM-A13] | 98 | 
35 | O=c1cc(-c2ccc(O)c(O)c2)oc2cc(O)cc(O)c12 [Compound 714, Luteolin] | 87 | 
36 | Cc1c(CC(C)(C)C(=O)O)n(Cc2ccc(Cl)cc2)c2ccc(F)cc12 [Compound 715, L-655,240] | 73 | 
37 | CCOC(=O)N1CCC(=C2c3ccc(Cl)cc3CCc3cccnc32)CC1 [Compound 716, Loratadine] | 88 | 
38 | Cl.c1ccc([C@H]2CN3CCSC3=N2)cc1 [Compound 717, (-)-Tetramisole hydrochloride] | 90 | 
39 | CCOC(=O)c1ncn2c1[C@@H]1CCCN1C(=O)c1cc(OC)ccc1-2 [Compound 718, L-655,708] | 90 | 
40 | Cl.O=c1cc(N2CCOCC2)oc2c(-c3ccccc3)cccc12 [Compound 719, LY-294,002 hydrochloride] | 53 | 
41 | CN1CCN(C2=Nc3ccccc3Oc3ccc(Cl)cc32)CC1 [Compound 720, Loxapine succinate] | 3 | 
42 | CCCCCN(CCCCC)C(=O)C(CCC(=O)O)NC(=O)c1ccc(Cl)c(Cl)c1 (stereo not drawn) [Compound 722, Lorglumide sodium] | 122 | 
43 | Ic1ccccc1CNC1C2CCN(CC2)C1C(c1ccccc1)c1ccccc1.O=C(O)C(=O)O [Compound 725, L-703,606 oxalate] | 98 | 
44 | C=CCN1CC[C@]23CCCC[C@H]2[C@H]1Cc1ccc(O)cc13 [Compound 726, Levallorphan tartrate] | 93 | 

Same assay, conditions: 10 µM compound, 300 nM dopamine, 2 hr

Row | SMILES | % of the SCH23390 effect (percent inhibition of receptor response relative to the SCH23390 control)
45 | CC1(C)C(=O)N(CCN2CCC(C(=O)c3ccc(F)cc3)CC2)c2ccccc21.Cl [Compound 698, LY-310,762 hydrochloride] | 81%

Same assay, conditions: 10 µM compound, 300 nM dopamine, 2 hr; hit = compound effect <20

Row | SMILES | Compound effect (percent receptor signaling in presence of test compound, relative lux units relative to the SCH23390 control)
46 | Cc1ccc(OCC(O)C(C)NC(C)C)c2c1CCC2.Cl (stereo not drawn) [Compound 672, ICI 118,551 hydrochloride] | 92%
47 | CCN1CCC[C@H]1CNC(=O)c1c(OC)ccc(I)c1O [Compound 675, S(-)-IBZM] | 85%
48 | NC(CO)(CO)CO.O=C(c1ccccc1)c1ccc2n1CCC2C(=O)O (stereo not drawn) [Compound 684, Ketorolac tris salt] | 98%
49 | CC1(C)C(=O)N(CCN2CCC(C(=O)c3ccc(F)cc3)CC2)c2ccccc21.Cl [Compound 698, LY-310,762 hydrochloride] | 19%
50 | CC(O)C(C)OC(=O)[C@@H]1C[C@@H]2c3cccc4c3c(cn4C(C)C)C[C@H]2N(C)C1.O=C(O)/C=C\C(=O)O (stereo partly drawn) [Compound 721, LY-53,857 maleate] | 73%
51 | CN1C2CCC1CC(NC(=O)c1nn(C)c3ccccc13)C2.O=C(O)/C=C\C(=O)O (stereo not drawn) [Compound 723, LY-278,584 maleate] | 92%

Same assay, conditions: read-out: % of the SCH23390 effect (percent inhibition of receptor response relative to the SCH23390 control)

Row | SMILES | inhibition at 10 µM
52 | CN1CCC(=C2c3ccccc3CC(=O)c3sccc32)CC1 [Compound 687, Ketotifen fumarate] | 96%
53 | O=C1Cc2c([nH]c3ccc(Br)cc23)-c2ccccc2N1 [Compound 689, Kenpaullone] | 83%
54 | CC1(C)CCC2=C(O1)c1ccccc1C(=O)C2=O [Compound 696, beta-Lapachone] | 86%
55 | CN1CCN(C2=Nc3ccccc3Oc3ccc(Cl)cc32)CC1 [Compound 720, Loxapine succinate] | 97%

Source: publication PMC3265452 (PLoS Neglected Tropical Diseases, 2012)
